For the experiment, the target named is BK channels, cloned hSlo (α-hSlo and β-bSlo) in CHO cells (Homo sapiens, UniProt Q12791). Nature of the experiment: Em-Assay (voltage sensitive dye DiBAC(4)3 fluorescence, membrane potential). The format is cell-based. Particulars: ratio of the compound effect (50 μM) compared to the maximal effect of NS004 (25 or 50 μM); hSlo transfected CHO cells. From the text: The large conductance, voltage dependent and Ca^2+-activated potassium channel BK is a potassium selective ion channel and belongs to the subfamily of KCa channels. Four BK alpha-subunits form a functional channel that can be regulated by intracellular Ca^2+ concentration, membrane voltage, and other mechanisms like phosphorylation states or beta subunits. To test the biological activity of the compounds, we applied two different techniques, a fluorescence based assay using a voltage sensitive dye (Em-Assay) as well as exploiting electrophysiological methods.
Sequence of BK channels, cloned hSlo (α-hSlo and β-bSlo) in CHO cells (Q12791 whole entry): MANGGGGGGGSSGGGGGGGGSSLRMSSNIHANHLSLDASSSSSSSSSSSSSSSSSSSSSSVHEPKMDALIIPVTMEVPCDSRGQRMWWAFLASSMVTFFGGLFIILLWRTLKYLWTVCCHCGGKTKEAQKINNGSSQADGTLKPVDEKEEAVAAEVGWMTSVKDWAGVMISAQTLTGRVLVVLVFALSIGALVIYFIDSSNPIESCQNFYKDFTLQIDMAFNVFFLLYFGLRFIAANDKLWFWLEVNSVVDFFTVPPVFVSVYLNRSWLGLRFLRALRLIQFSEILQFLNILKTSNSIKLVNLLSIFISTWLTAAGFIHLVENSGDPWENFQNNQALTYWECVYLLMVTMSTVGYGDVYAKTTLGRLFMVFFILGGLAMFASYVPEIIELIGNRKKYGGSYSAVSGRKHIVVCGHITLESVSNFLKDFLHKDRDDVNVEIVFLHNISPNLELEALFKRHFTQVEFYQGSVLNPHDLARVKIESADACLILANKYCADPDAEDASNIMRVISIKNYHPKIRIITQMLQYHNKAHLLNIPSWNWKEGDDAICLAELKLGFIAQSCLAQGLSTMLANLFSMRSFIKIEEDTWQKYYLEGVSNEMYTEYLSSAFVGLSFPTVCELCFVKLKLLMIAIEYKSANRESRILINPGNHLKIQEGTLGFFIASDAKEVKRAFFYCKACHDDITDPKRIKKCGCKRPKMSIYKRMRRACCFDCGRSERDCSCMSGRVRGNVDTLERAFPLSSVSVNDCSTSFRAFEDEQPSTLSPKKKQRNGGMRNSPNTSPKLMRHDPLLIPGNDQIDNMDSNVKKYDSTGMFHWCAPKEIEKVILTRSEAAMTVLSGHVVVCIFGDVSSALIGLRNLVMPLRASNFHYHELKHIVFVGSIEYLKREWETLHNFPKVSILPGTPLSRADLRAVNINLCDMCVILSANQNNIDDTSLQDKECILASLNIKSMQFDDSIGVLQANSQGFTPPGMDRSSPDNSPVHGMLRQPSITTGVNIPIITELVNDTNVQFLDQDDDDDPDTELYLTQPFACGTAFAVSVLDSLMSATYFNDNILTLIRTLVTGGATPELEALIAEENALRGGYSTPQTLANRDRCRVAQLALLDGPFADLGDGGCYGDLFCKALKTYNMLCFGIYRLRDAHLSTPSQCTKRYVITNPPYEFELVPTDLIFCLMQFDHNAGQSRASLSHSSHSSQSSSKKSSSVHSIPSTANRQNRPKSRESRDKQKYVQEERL
Sequence of BK channels, cloned hSlo (α-hSlo and β-bSlo) in CHO cells (Q28067 whole entry partner): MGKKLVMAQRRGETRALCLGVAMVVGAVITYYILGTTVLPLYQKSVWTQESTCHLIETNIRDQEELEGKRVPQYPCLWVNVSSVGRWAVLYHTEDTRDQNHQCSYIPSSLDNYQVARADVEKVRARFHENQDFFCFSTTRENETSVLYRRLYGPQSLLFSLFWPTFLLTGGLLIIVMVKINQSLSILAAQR
CHO cells permanently transfected with cloned hSlo (α-hSlo and β-bSlo), yielding typical BK potassium currents (Zhou et al., Pflügers Arch., 436: 725-734 (1998), were used for the evaluation of compound activity. Activation or inhibition of BK channels in these cells leads to a change of the electrochemical gradient causing a hyperpolarized or depolarised membrane potential, respectively.
To determine changes in the membrane potential of the cells we used the voltage sensitive dye DiBAC(4)3 (Molecular Probes) in a kinetic assay system using a fluorescent plate reader (Manning and Sontheimer, J. Neurosci. Meth., 91: 73-81 (1999). The anionic bis-oxonol DiBAC(4)3 is a voltage sensitive dye which partitions from the extracellular environment into the cell where it reversibly binds to intracellular proteins, a kinetic process depending on the membrane potential of the cell. At depolarised potentials (i.e. at a reduced K^+ efflux due to blocked K^+ channels) the dye accumulates in the cell leading to an increased fluorescence intensity, due to its increased fluorescence if bound to cellular proteins. At hyperpolarized potentials (i.e. at an increased K^+ efflux due to the opening of K^+ channels), the dye partitions out of the cell causing a decreased fluorescence intensity.
hSlo transfected CHO cells where maintained in DMEM supplemented with 10% FCS, 250 μg/ml Geneticin, 100 μg/ml Hygromycin, 1×HT-Supplement, and 1×Non-essential Amino Acids and cultured in a humidified CO2 incubator. After trypsination, cells where plated with a density of 5×10^4 cells per well on a clear 96-well plate and incubated for 24 h. Cells where washed once with PBS, once with PBS containing 20 mM HEPES (adjusted to pH 7.4 with NaOH) and 2 μM DiBAC(4)3 (DPBS-DiMAC solution). 180 μl of the dPBS-DiBAC solution was then added to the cells and the plate incubated for 30-60 min at 37° C. During this time the dye could partition into the cells and reach a certain steady-state distribution, depending on the resting membrane potential. Test and reference compounds were stored as DMSO stock solutions and diluted in dPBS-DiBAC solution to the desired concentration.
Fluorescence intensity (Ex.: 485 nm/Em: 520 nm) of each well was detected in the plate reader (Fluostar, BMG) every 60 seconds. After recording the baseline fluorescence for 7 minutes, 20 μl test and reference compounds were added and the fluorescence intensity was detected for additional 15 minutes. Background was subtracted, data values were normalized and expressed as a change in fluorescence intensity against time. The change in fluorescence intensity caused by the test compounds was evaluated compared to the effect of the reference compound NS004, and the ratio was determined (see Table I).
As to `Fc1cccc(-c2ccc3cc[nH]c3c2)c1` [Compound 37], the Em effect result is “+ (0-1=+)”.

For the compound `FC(F)(F)Oc1ccc(-c2cccc3[nH]ccc23)cc1` [Compound 28], the Em effect entry was “+ (0-1=+)”.

With `CC(=O)c1cccc(-c2ccc3[nH]ccc3c2)c1` [Compound 49], the Em effect entry was “+ (0-1=+)”.

`c1ccc(-c2ccc3[nH]ccc3c2)nc1` [Compound 52]: the Em effect entry was “+ (0-1=+)”.

Regarding `Fc1ccc(-c2cccc3[nH]ccc23)c(F)c1` [Compound 55], the Em effect entry is recorded as “+ (0-1=+)”.

`FC(F)(F)c1cc(-c2cccc3[nH]ccc23)cc(C(F)(F)F)c1` [Compound 20]: the Em effect entry was “+ (0-1=+)”.

In the case of `c1ccc(Oc2ccc(-c3cccc4[nH]ccc34)cc2)cc1` [Compound 57], the Em effect result is “+ (0-1=+)”.

As to `FC(F)(F)Oc1cccc(-c2ccc3[nH]ccc3c2)c1` [Compound 34], the Em effect result was “+ (0-1=+)”.

For the compound `c1cc2cc(-c3ccc4c(c3)OCO4)ccc2[nH]1` [Compound 50], the Em effect entry is “++ (>1=++)”.

Regarding `FC(F)(F)Oc1cccc(-c2cccc3cc[nH]c23)c1` [Compound 38], the Em effect result is “+ (0-1=+)”.

Consider `O=Cc1ccccc1-c1ccc2[nH]ccc2c1` [Compound 31], for which the Em effect entry was “+ (0-1=+)”.

Regarding `Clc1ccccc1-c1ccc2cc[nH]c2c1` [Compound 15], the Em effect result is “+ (0-1=+)”.

With `Clc1ccc(-c2cccc3cc[nH]c23)s1` [Compound 6], the Em effect entry was “+ (0-1=+)”.

Take `Fc1ccc(-c2ccc3cc[nH]c3c2)c(F)c1` [Compound 16]: the Em effect entry was “+ (0-1=+)”.

In the case of `Clc1ccccc1-c1cccc2cc[nH]c12` [Compound 9], the Em effect result is recorded as “+ (0-1=+)”.

On to `COc1ccc(-c2ccc3[nH]ccc3c2)cc1` [Compound 54], for which the Em effect result is “++ (>1=++)”.

`c1cc2cc(-c3ccc4cc[nH]c4c3)ccc2[nH]1` [Compound 53]: the Em effect entry was “++ (>1=++)”.

Turning to `c1ccc2c(-c3ccc4[nH]ccc4c3)cccc2c1` [Compound 44], the Em effect entry is on record as “++ (>1=++)”.

As for `Clc1ccc(-c2ccc3[nH]ccc3c2)cc1` [Compound 46], the Em effect result is given as “++ (>1=++)”.

In the case of `Clc1ccc(-c2ccc3cc[nH]c3c2)s1` [Compound 13], the Em effect result is recorded as “+ (0-1=+)”.

As to `CN(C)c1ccc(-c2cccc3cc[nH]c23)cc1` [Compound 11], the Em effect entry was “++ (>1=++)”.

`c1cc(-c2ccc3[nH]ccc3c2)c2cc[nH]c2c1` [Compound 47]: the Em effect result is reported as “+ (0-1=+)”.

In the case of `COc1cccc(-c2cccc3[nH]ccc23)c1` [Compound 56], the Em effect entry is “+ (0-1=+)”.

Turning to `FC(F)(F)c1ccc(-c2ccc3cc[nH]c3c2)cc1` [Compound 14], the Em effect entry was “+ (0-1=+)”.

As to `Fc1cc(-c2cccc3[nH]ccc23)ccc1-c1ccccc1` [Compound 21], the Em effect entry was “+ (0-1=+)”.

Take `COc1c(C)cc(-c2ccc3[nH]ccc3c2)cc1C` [Compound 51]: the Em effect entry is recorded as “++ (>1=++)”.

Consider `CC(C)(C)c1ccc(-c2cccc3[nH]ccc23)cc1` [Compound 39], for which the Em effect result is on record as “++ (>1=++)”.

As to `Clc1ccccc1-c1cccc2[nH]ccc12` [Compound 26], the Em effect result is “+ (0-1=+)”.

In the case of `O=[N+]([O-])c1ccccc1-c1ccc2[nH]ccc2c1` [Compound 33], the Em effect entry was “+ (0-1=+)”.

As to `FC(F)(F)c1cc(-c2ccc3cc[nH]c3c2)cc(C(F)(F)F)c1` [Compound 61], the Em effect entry is reported as “+ (0-1=+)”.

As to `FC(F)(F)c1ccc(-c2cccc3[nH]ccc23)cc1` [Compound 25], the Em effect entry is “+ (0-1=+)”.

In the case of `Fc1ccc(-c2cccc3cc[nH]c23)c(F)c1` [Compound 10], the Em effect result is “+ (0-1=+)”.

Consider `COc1ccccc1-c1ccc2cc[nH]c2c1` [Compound 19], for which the Em effect result is listed as “+ (0-1=+)”.

Regarding `COc1ccc(-c2cccc3[nH]ccc23)cc1` [Compound 42], the Em effect entry is “+ (0-1=+)”.

On to `FC(F)(F)c1ccc(-c2cccc3cc[nH]c23)cc1` [Compound 8], for which the Em effect entry is given as “+ (0-1=+)”.
